Reference: US9546158B2, “2,5-substituted pyrimidines” (Grünenthal GmbH, priority 2014, dated 2017)

What was measured:
human PDE4B1 [1] = biological target: T1, human PDE4B1 (Homo sapiens, UniProt Q07343); test: cAMP HTRF assay to determine the activity of hPDE4B1; type: biochemical; details: test substrate concentration of 1 μM, read-out: Inhibition of PDE4B, Inhibition in %
T1 construct: host or cells: Sf9 cells
Experimental: cAMP HTRF® Assay to Determine the Activity of hPDE4B1
The inhibiting effect of the compounds on the enzyme activity of human PDE4B1 was measured by the quantification of 5′-adenosine monophosphate (5′-AMP), which is formed from 3′,5′-cyclic adenosine monophosphate (cAMP). Human recombinant enzyme, expressed in Sf9 cells, and the HTRF (homogeneous time-resolved fluorescence) detection method were used in the assay.
The test compound or water (control) was mixed with the human recombinant PDE4B1 enzyme (4.8 U) in a buffer consisting of 44.4 mM tris-HCl, 5.28 mM MgCl2, 2.64 mM DTT and 0.044% Tween 20 (pH 7.8). After adding the cAMP enzyme substrate (final concentration 40 nM), the mixture was incubated for 30 minutes at room temperature. Then a fluorescence acceptor (Dye2 marked with cAMP), a fluorescence donor (anti-cAMP antibody marked with a europium cryptate) and the non-specific phosphodiesterase inhibitor IBMX (3-isobutyl-1-methylxanthine; final concentration 1 mM) were added. After 60 minutes the fluorescence transfer, which correlates with the amount of remaining cAMP, was measured with a microplate reader (Rubystar, BMG) at λex=337 nm, λem=620 nm and λem=665 nm. The enzyme activity was calculated from the quotient formed from the measured signal at 665 nm and that at 620 nm. The result was expressed as the percentage inhibition of enzyme activity of the control (without PDE4 inhibitor). The enzyme was omitted for measurement of the basal control. IC50 values (IC50=concentration causing a half-maximal inhibition of control specific activity) were derived from dose response measurements with eight different concentrations (n=2; N=1-3).
Literature: N. Saldou et al., Comparison of recombinant human PDE4 isoforms: interaction with substrate and inhibitors, Cell. Signal. Vol. 10, No. 6, 427-440, 1998

human PDE4B1 [2] = biological target: T1, human PDE4B1; test: TR-FRET assay using the LANCE Ultra cAMP kit to determine the activity of hPDE4B1; type: biochemical; details: test substrate concentration of 10 μM, read-out: Inhibition of PDE4B, Inhibition in %
Source text: TR-FRET Assay Using the LANCE® Ultra cAMP Kit to Determine the Activity of hPDE4B1
The effects of the compounds on the activity of the human PDE4B1 was quantified by measuring the production of 5′AMP from cAMP using a human recombinant enzyme expressed in Sf9 cells and the LANCE® Ultra cAMP kit, a TR-FRET detection method from PerkinElmer. The human PDE4B1 enzyme was purchased from SignalChem Lifesciences (Catalog #P92-31BG, Lot #H296-2).
The test compound, reference compound or water (control) was mixed with the enzyme (0.96 U) in a reaction buffer containing 50 mM Tris-HCl, 50 mM MgCl2 and 5 mM DTT (pH 8.5). Thereafter, the reaction was initiated by addition of 500 nM cAMP (substrate) and the mixture was incubated for 30 minutes at room temperature. For control basal measurements, the enzyme was omitted from the reaction mixture. After 30 minutes, the reaction was stopped and diluted by a factor of 100 with the reaction buffer supplemented with 500 μM IBMX. The fluorescence donor (europium chelate-labeled cAMP) and the fluorescence acceptor (anti-cAMP antibody labeled with the ULight™ dye) were then added together with 500 μM IBMX to a 10 μl aliquot. After 60 minutes, the fluorescence transfer corresponding to the amount of residual cAMP was measured at λex=337 nm, λem=620 nm and λem=665 nm using a microplate reader (PHERAstar, BMG). The enzyme activity was determined by dividing the signal measured at 665 nm by that measured at 620 nm (ratio) multiplied by 10000. The results were expressed as percent inhibition of the control enzyme activity. IC50 values (IC50=concentration causing a half-maximal inhibition of control specific activity) were derived from dose response measurements with ten different concentrations (n=3; N=1-3).

T1 sequence (Q07343 whole entry): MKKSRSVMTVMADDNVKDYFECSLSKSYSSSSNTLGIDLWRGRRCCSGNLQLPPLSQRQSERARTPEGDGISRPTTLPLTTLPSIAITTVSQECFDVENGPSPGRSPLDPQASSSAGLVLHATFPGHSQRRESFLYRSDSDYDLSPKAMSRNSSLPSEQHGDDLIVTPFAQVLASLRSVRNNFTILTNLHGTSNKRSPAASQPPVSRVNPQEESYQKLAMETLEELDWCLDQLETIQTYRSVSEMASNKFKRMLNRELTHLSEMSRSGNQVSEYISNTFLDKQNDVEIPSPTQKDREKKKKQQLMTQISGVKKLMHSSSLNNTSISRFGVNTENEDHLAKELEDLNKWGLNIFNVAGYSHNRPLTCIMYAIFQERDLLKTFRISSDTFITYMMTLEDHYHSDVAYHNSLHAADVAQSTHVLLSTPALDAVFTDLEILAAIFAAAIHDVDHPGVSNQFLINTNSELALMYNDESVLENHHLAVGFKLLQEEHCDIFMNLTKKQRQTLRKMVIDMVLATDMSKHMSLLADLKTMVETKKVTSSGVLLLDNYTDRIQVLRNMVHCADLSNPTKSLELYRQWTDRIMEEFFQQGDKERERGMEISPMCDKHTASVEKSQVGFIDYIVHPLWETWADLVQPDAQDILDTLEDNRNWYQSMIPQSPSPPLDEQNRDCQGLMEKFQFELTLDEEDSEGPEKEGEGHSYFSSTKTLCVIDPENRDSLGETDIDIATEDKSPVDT

| SMILES | inhibition at 1 µM (human PDE4B1 [1]) | melting point | inhibition at 10 µM (human PDE4B1 [2]) |
| --- | --- | --- | --- |
| O=C(c1cc2c(cn1)c(C1CC1)nn2-c1ncc(-c2ccccc2F)cn1)N1CCOCC1 [Compound No. 29, (3-Cyclopropyl-1-(5-(2-fluorophenyl)pyrimidin-2-yl)-1H-pyrazolo[4,3-c]pyridin-6-yl)(morpholino)methanone] | 73% | 232 to 235 °C |  |
| O=C(c1ccc2c(C3CC3)nn(-c3ncc(-c4ccccn4)cn3)c2c1)N1CCOCC1 [Compound No. 30, (3-Cyclopropyl-1-(5-(pyridin-2-yl)pyrimidin-2-yl)-1H-indazol-6-yl)(morpholino)methanone] | 96% | 260 to 263 °C |  |
| CC(C)(O)c1nn(-c2ncc(-c3ccccc3F)cn2)c2cc(C(=O)N3CCOCC3)ccc12 [Compound No. 31] | 102% | 235 to 237 °C |  |
| CCOc1ccc(F)c(-c2cnc(-n3nc(C4CC4)c4ccc(C(=O)N(C)CC(N)=O)cc43)nc2)c1 [Compound No. 50, N-(2-Amino-2-oxoethyl)-3-cyclopropyl-1-(5-(5-ethoxy-2-fluorophenyl)pyrimidin-2-yl)-N-methyl-1H-indazole-6-carboxamide] |  | 228 to 231 °C | 95% |
| CCOc1ccc(F)c(-c2cnc(-n3nc(C4CC4)c4ccc(C(=O)N5CCOCC5)cc43)nc2)c1 [Compound No. 51, (3-Cyclopropyl-1-(5-(5-ethoxy-2-fluorophenyl)pyrimidin-2-yl)-1H-indazol-6-yl)(morpholino)methanone] |  | 155 to 158 °C | 103% |
| CC(O)c1ccc(F)c(-c2cnc(-n3nc(C4CC4)c4ccc(C(=O)N5CCOCC5)cc43)nc2)c1 (stereo not drawn) [Compound No. 52, (3-Cyclopropyl-1-(5-(2-fluoro-5-(1-hydroxyethyl)phenyl)pyrimidin-2-yl)-1H-indazol-6-yl)(morpholino)methanone] |  | 256 to 260 °C | 117% |
| CC(O)c1ccc(F)c(-c2cnc(-n3nc(C4CC4)c4ccc(C(=O)N(C)CC(N)=O)cc43)nc2)c1 (stereo not drawn) [Compound No. 53, N-(2-Amino-2-oxoethyl)-3-cyclopropyl-1-(5-(2-fluoro-5-(1-hydroxyethyl)phenyl)pyrimidin-2-yl)-N-methyl-1H-indazole-6-carboxamide] |  | 248 to 252 °C | 101% |
| CC(C)(O)c1ccc(F)c(-c2cnc(-n3nc(C4CC4)c4ccc(C(=O)N5CCOCC5)cc43)nc2)c1 [Compound No. 54, (3-Cyclopropyl-1-(5-(2-fluoro-5-(2-hydroxypropan-2-yl)phenyl)pyrimidin-2-yl)-1H-indazol-6-yl)(morpholino)methanone] |  | 211 to 215 °C | 107% |
| CN(CC(N)=O)C(=O)c1ccc2c(C3CC3)nn(-c3ncc(-c4cc(C(C)(C)O)ccc4F)cn3)c2c1 [Compound No. 55, N-(2-Amino-2-oxoethyl)-3-cyclopropyl-1-(5-(2-fluoro-5-(2-hydroxypropan-2-yl)phenyl)pyrimidin-2-yl)-N-methyl-1H-indazole-6-carboxamide] |  | 177 to 180 °C | 115% |
| C[S+]([O-])c1ccc(F)c(-c2cnc(-n3nc(C4CC4)c4ccc(C(=O)N5CCOCC5)cc43)nc2)c1 (stereo not drawn) [Compound No. 56, (3-Cyclopropyl-1-(5-(2-fluoro-5-(methylsulfinyl)phenyl)pyrimidin-2-yl)-1H-indazol-6-yl)(morpholino)methanone] |  | 243 to 247 °C | 106% |
| CN(CC(N)=O)C(=O)c1ccc2c(C3CC3)nn(-c3ncc(-c4cc([S+](C)[O-])ccc4F)cn3)c2c1 (stereo not drawn) [Compound No. 57] |  | 274 to 277 °C | 120% |
| CS(=O)(=O)c1ccc(F)c(-c2cnc(-n3nc(C4CC4)c4ccc(C(=O)N5CCOCC5)cc43)nc2)c1 [Compound No. 58, (3-Cyclopropyl-1-(5-(2-fluoro-5-(methylsulfonyl)phenyl)pyrimidin-2-yl)-1H-indazol-6-yl)(morpholino)methanone] |  | 276 to 280 °C | 105% |
